Literature values, collected in patent US9988377B2, “Small molecule inducers of GDNF as potential new therapeutics for neuropsychiatric disorders” (THE TRUSTEES OF COLUMBIA UNIVERSITY IN THE CITY OF NEW YORK, priority 2011, dated 2018).
Like-named read-outs stand apart in the source and are kept apart here.

What was measured:
alcohol intake [1] = conditions: mice; effect dependent on induction of GDNF in the VTA; cited from earlier work
alcohol intake [2] = conditions: rats; effect dependent on induction of GDNF in the VTA; cited from earlier work

Substance: ibogaine
- self-administration and reinstatement of alcohol intake (alcohol intake [1]): reduce self-administration and reinstatement of alcohol intake
- self-administration and reinstatement of alcohol intake (alcohol intake [2]): reduce self-administration and reinstatement of alcohol intake
